Measured values reported in US10251395B2, “Substituted furano-/thienocycloalkylamino-2-pyrimidine derivatives and use thereof for controlling undesired plant growth” (Bayer CropScience Aktiengesellschaft, priority 2015, dated 2019).

Assays:
Format in all cases: in vivo
[1] = system: Avena fatua; assay: Pre-emergence herbicidal effect; details: Dosage 320 g/ha, scored visually after 3 weeks
How it was run: (§1)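 Seeds sown in sandy loam in wood-fiber pots and covered with soil; WP or EC formulations applied to the soil surface as aqueous suspension or emulsion at 600 to 800 L/ha water with 0.2% wetting agent. Greenhouse, 3 weeks; damage scored visually versus untreated controls (100% = plants died, 0% = like control).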

[2] = system: Amaranthus retroflexus; assay: Pre-emergence herbicidal effect; details: scored visually after 3 weeks
How it was run: as §1

[3] = system: Alopecurus myosuroides; assay: Pre-emergence herbicidal effect; details: scored visually after 3 weeks
How it was run: as §1

[4] = system: Stellaria media; assay: Pre-emergence herbicidal effect; details: scored visually after 3 weeks
How it was run: as §1

[5] = system: Veronica persica; assay: Pre-emergence herbicidal effect; details: scored visually after 3 weeks
How it was run: as §1

[6] = system: Polygonum convolvulus; assay: Pre-emergence herbicidal effect; details: scored visually after 3 weeks
How it was run: as §1

[7] = system: Matricaria inodora; assay: Pre-emergence herbicidal effect; details: scored visually after 3 weeks
How it was run: as §1

[8] = system: Setaria viridis; assay: Pre-emergence herbicidal effect; details: scored visually after 3 weeks
How it was run: as §1

[9] = system: Lolium multiflorum; assay: Pre-emergence herbicidal effect; details: scored visually after 3 weeks
How it was run: as §1

[10] = system: Viola tricolor; assay: Pre-emergence herbicidal effect; details: scored visually after 3 weeks
How it was run: as §1

[11] = system: Echinochloa crus-galli; assay: Pre-emergence herbicidal effect; details: scored visually after 3 weeks
How it was run: as §1

[12] = system: Amaranthus retroflexus; assay: Post-emergence herbicidal effect; details: assessed visually after about 3 weeks vs untreated controls
How it was run: (§2)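 Visual % damage vs untreated plants, ~3 wk after spraying (100% = dead, 0% = as control). Post-emergence foliar spray at one-leaf stage; WP/EC in water, 600–800 L/ha + 0.2% wetting agent; sandy loam, greenhouse.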

[13] = system: Abutilon theophrasti; assay: Post-emergence herbicidal effect; details: assessed visually after about 3 weeks vs untreated controls
How it was run: as §2

[14] = system: Stellaria media; assay: Post-emergence herbicidal effect; details: assessed visually after about 3 weeks vs untreated controls
How it was run: as §2

[15] = system: Veronica persica; assay: Post-emergence herbicidal effect; details: 320 g/ha, assessed visually after about 3 weeks vs untreated controls
How it was run: as §2

[16] = system: Polygonum convolvulus; assay: Post-emergence herbicidal effect; details: assessed visually after about 3 weeks vs untreated controls
How it was run: as §2

[17] = system: Matricaria inodora; assay: Post-emergence herbicidal effect; details: assessed visually after about 3 weeks vs untreated controls
How it was run: as §2

[18] = system: Setaria viridis; assay: Post-emergence herbicidal effect; details: 320 g/ha, assessed visually after about 3 weeks vs untreated controls
How it was run: as §2

[19] = system: Ipomoea purpurea; assay: Post-emergence herbicidal effect; details: assessed visually after about 3 weeks vs untreated controls
How it was run: as §2

[20] = system: Lolium multiflorum; assay: Post-emergence herbicidal effect; details: 320 g/ha, assessed visually after about 3 weeks vs untreated controls
How it was run: as §2

[21] = system: Viola tricolor; assay: Post-emergence herbicidal effect; details: assessed visually after about 3 weeks vs untreated controls
How it was run: as §2

[22] = system: Echinochloa crus-galli; assay: Post-emergence herbicidal effect; details: 320 g/ha, assessed visually after about 3 weeks vs untreated controls
How it was run: as §2

[23] = system: Alopecurus myosuroides; assay: Post-emergence herbicidal effect; details: 320 g/ha, assessed visually after about 3 weeks vs untreated controls
How it was run: as §2

[24] = system: Abutilon theophrasti; assay: Pre-emergence herbicidal effect; details: Dosage 320 g/ha, scored visually after 3 weeks
How it was run: as §1

Compound | AVEFA pre-emergence efficacy (herbicidal activity) [1] [%] | AMARE pre-emergence efficacy (herbicidal activity) ([2]; Dosage 80 g/ha) [%] | AMARE pre-emergence efficacy (herbicidal activity) ([2]; Dosage 320 g/ha) [%] | ALOMY pre-emergence efficacy (herbicidal activity) ([3]; Dosage 320 g/ha) [%] | STEME pre-emergence efficacy (herbicidal activity) ([4]; Dosage 80 g/ha) [%] | STEME pre-emergence efficacy (herbicidal activity) ([4]; Dosage 320 g/ha) [%] | VERPE pre-emergence efficacy (herbicidal activity) ([5]; Dosage 80 g/ha) [%] | VERPE pre-emergence efficacy (herbicidal activity) ([5]; Dosage 320 g/ha) [%] | POLCO pre-emergence efficacy (herbicidal activity) ([6]; Dosage 80 g/ha) [%] | POLCO pre-emergence efficacy (herbicidal activity) ([6]; Dosage 320 g/ha) [%] | MATIN pre-emergence efficacy (herbicidal activity) ([7]; Dosage 80 g/ha) [%] | MATIN pre-emergence efficacy (herbicidal activity) ([7]; Dosage 320 g/ha) [%] | SETVI pre-emergence efficacy (herbicidal activity) ([8]; Dosage 80 g/ha) [%] | SETVI pre-emergence efficacy (herbicidal activity) ([8]; Dosage 320 g/ha) [%] | VIOTR pre-emergence efficacy (herbicidal activity) ([10]; Dosage 80 g/ha) [%] | VIOTR pre-emergence efficacy (herbicidal activity) ([10]; Dosage 320 g/ha) [%] | ECHCG pre-emergence efficacy (herbicidal activity) ([11]; Dosage 320 g/ha) [%] | post-emergence efficacy AMARE ([12]; 320 g/ha) [%] | post-emergence efficacy ABUTH ([13]; 320 g/ha) [%] | post-emergence efficacy STEME ([14]; 320 g/ha) [%] | further results
C/C(=N\O)c1cnc(NC2CCCc3sc(Cl)cc32)nc1C (racemic) [compound 260] | 90 | 100 | 100 | 90 | 100 | 100 | 100 | 100 | 80 | 100 | 100 | 100 | 50 | 100 | 100 | 100 | 100 | 90 | 90 | 100 | ALOMY pre-emergence efficacy (herbicidal activity) ([3]; Dosage 80 g/ha): 70%; LOLMU pre-emergence efficacy (herbicidal activity) ([9]; Dosage 80 g/ha): 50%; LOLMU pre-emergence efficacy (herbicidal activity) ([9]; Dosage 320 g/ha): 100%; post-emergence efficacy AMARE ([12]; 80 g/ha): 90%; post-emergence efficacy ABUTH ([13]; 80 g/ha): 80%; post-emergence efficacy STEME ([14]; 80 g/ha): 80%; post-emergence efficacy VERPE [15]: 100%; post-emergence efficacy POLCO ([16]; 80 g/ha): 60%; post-emergence efficacy POLCO ([16]; 320 g/ha): 60%; post-emergence efficacy MATIN ([17]; 80 g/ha): 70%; post-emergence efficacy MATIN ([17]; 320 g/ha): 90%; post-emergence efficacy SETVI [18]: 100%; post-emergence efficacy PHBPU ([19]; 80 g/ha): 70%; post-emergence efficacy PHBPU ([19]; 320 g/ha): 90%; post-emergence efficacy LOLMU [20]: 70%; post-emergence efficacy VIOTR ([21]; 80 g/ha): 70%; post-emergence efficacy VIOTR ([21]; 320 g/ha): 90%; post-emergence efficacy ECHCG [22]: 100%
Cc1cc2c(s1)CCCC2Nc1nc(N)c(C#N)c(C(C)F)n1 (racemic) [compound 320] | – | – | 100 | – | – | 100 | – | 100 | – | 100 | – | 100 | – | 100 | – | 100 | – | 60 | 80 | 60 | post-emergence efficacy ALOMY [23]: 80%; post-emergence efficacy VERPE [15]: 100%; post-emergence efficacy SETVI [18]: 60%; post-emergence efficacy VIOTR ([21]; 320 g/ha): 100%
Cc1cc2c(s1)CCCC2Nc1nc(N)c([S+](C)[O-])c(C(C)F)n1 (racemic) [compound 309] | 90 | 90 | 100 | 90 | 100 | 100 | 100 | 100 | 100 | 100 | 90 | 100 | 90 | 100 | 100 | 100 | 90 | – | – | – | ABUTH pre-emergence efficacy (herbicidal activity) [24]: 80%; ECHCG pre-emergence efficacy (herbicidal activity) ([11]; Dosage 80 g/ha): 60%
